Source: US20070254907A1, “COMPOSITIONS AND METHODS FOR CONTROLLING INFESTATION” (HATCHTECH PTY LTD, priority 2003, published 2007)
“Also recorded” adds a separate entry of the source. Where two headings read alike, the source gives them in different places.

Assays:
Plutella xylostella eggs = assay: whole plant or invertebrate; format: in vivo; conditions: for Number hatched / Number unhatched: dipped 2-10 s, day 6 post laying
Experimental: The ovicidal efficacy of 2-acetyl-1-tetralone was also tested against Plutella eggs.

lice eggs = assay: whole plant or invertebrate; format: in vivo; conditions: for inhibition at 10000 µM / inhibition at 2500 µM / inhibition at 5000 µM: read-out: Percent inhibition of egg hatching; for inhibition at 2500 µM: 2.5 mM; for inhibition at 5000 µM: 5 mM
[1] = system: Helicoverpa armigera eggs; assay: Egg hatching of Helicoverpa armigera
Experimental: A range of concentrations were made up in water and the eggs placed in the solutions for approximately 2-10 seconds. The eggs which had been laid on cloth were then blotted dry and placed in an incubator at 26° C. for 3-4 days until hatch. Hatch rates were then assessed compared to a water only treated control (FIG. 5).
The compound was dissolved in 100% diethoxyglycol and diluted to a final concentration of 1% in water.
Several hundred Helicoverpa armigera eggs (Tatura×Toowoomba strains) were collected, that had been laid on fine mesh cloth over a 24 hour period.
Batches of Helicoverpa eggs were exposed to a specific inhibitor solution for between 2-10 seconds the excess solution drained by blotting with dry tissue paper. The egg masses were then placed in a humid box at 25 degrees until egg hatch. Control eggs were exposed to absolute methanol as described above. At day 6 post laying the eggs were assessed from the different treatments and the percentage of egg hatch determined relative to the control as shown in Table 12.
Batches of Helicoverpa eggs were then exposed to a specific inhibitor solution for between 2-10 seconds the excess solution drained by blotting with dry tissue paper. The egg masses were then placed in a humid box at 25° C. until egg hatch. Control eggs were exposed to absolute methanol as described above. At day 6 post laying the eggs were assessed from the different treatments and the percentage of egg hatch determined relative to the control as shown in Table 13.

[2] = Pediculus humanus, 24 h, treated 24 hr post egg laying
[3] = Pediculus humanus, 48 h, treated 48 hr post egg laying
[4] = Pediculus humanus, 72 h, treated 72 hr post egg laying
[5] = Pediculus humanus, 96 h, treated 96 hr post egg laying
[6] = Pediculus humanus, 120 h, treated 120 hr post egg laying
[7] = Pediculus humanus, 144 h, treated 144 hr post egg laying

For `c1cnc2c(c1)ccc1cccnc12` [1,10-phenanthroline, reference compound], the “effect on egg hatching of Plutella xylostella (words)” value (Plutella xylostella eggs; 10 mM) was “significantly inhibit egg hatching”, the inhibition at 1000 µM (Plutella xylostella eggs; Plutella xylostella, Table 9, 1 mM, relative to control (100% MeOH), read-out: % Inhibition) was 0% and the inhibition at 10000 µM (Plutella xylostella eggs; Plutella xylostella, Table 9, 10 mM, relative to control (100% MeOH), read-out: % Inhibition) was 100%. The Number hatched (Plutella xylostella eggs; Table 9, 1 mM) was 15, the Number unhatched (Plutella xylostella eggs; Table 9, 1 mM) was 16 and the Number hatched (Plutella xylostella eggs; Table 9, 10 mM) was 0. The Number unhatched (Plutella xylostella eggs; Table 9, 10 mM) was 45, the “inhibition of lice egg hatching following washing of eggs in water” value (lice eggs; 10 mM, then 1 minute wash) was “still highly efficacious at inhibiting lice egg hatching” and the “embryo development in treated eggs” value (lice eggs; 10 mM, a proportion of eggs) was “had embryos that appeared to develop normally yet failed to hatch”. The “inhibition of egg hatching in lice” value (lice eggs; 10 mM, eggs treated 5 days post laying, 10 min) was “significantly inhibited egg hatching”, the inhibition at 1000 µM (lice eggs; Pediculus humanus, 1 mM, eggs treated 5 days post laying, 10 min, read-out: level of inhibition of egg hatching compared to controls) was ~30% and the inhibition at 10000 µM (lice eggs; Pediculus humanus, 10 mM, 10 minutes, not washed, treated 24 hr post laying) was 100%. It also gave an inhibition at 10000 µM (lice eggs; Pediculus humanus, 10 mM, 10 minutes, not washed, treated 48 hr post laying) of 100%, an inhibition at 10000 µM (lice eggs; Pediculus humanus, 10 mM, 10 minutes, not washed, treated 72 hr post laying) of 100% and an inhibition at 10000 µM (lice eggs; Pediculus humanus, 10 mM, 10 minutes, not washed, treated 96 hr post laying) of 100%. For the same molecule, the inhibition at 10000 µM (lice eggs; Pediculus humanus, 10 mM, 10 minutes, not washed, treated 120 hr post laying) was 100%, the inhibition at 10000 µM (lice eggs; Pediculus humanus, 10 mM, 10 minutes, washed for 1 minute, treated 24 hr post laying) was 100% and the inhibition at 10000 µM (lice eggs; Pediculus humanus, 10 mM, 10 minutes, washed for 1 minute, treated 48 hr post laying) was 100%. It also gave an inhibition at 10000 µM (lice eggs; Pediculus humanus, 10 mM, 10 minutes, washed for 1 minute, treated 72 hr post laying) of 100%, an inhibition at 10000 µM (lice eggs; Pediculus humanus, 10 mM, 10 minutes, washed for 1 minute, treated 96 hr post laying) of 97% and an inhibition at 10000 µM (lice eggs; Pediculus humanus, 10 mM, 10 minutes, washed for 1 minute, treated 120 hr post laying) of 62%. It also gave an inhibition at 2500 µM (lice eggs; [2]) of 100%, an inhibition at 5000 µM (lice eggs; [2]) of 100% and an inhibition at 10000 µM (lice eggs; Pediculus humanus, 24 h, 10 mM, treated 24 hr post egg laying) of 100%. It also gave an inhibition at 2500 µM (lice eggs; [3]) of 100%, an inhibition at 5000 µM (lice eggs; [3]) of 100% and an inhibition at 10000 µM (lice eggs; Pediculus humanus, 48 h, 10 mM, treated 48 hr post egg laying) of 100%. The inhibition at 2500 µM (lice eggs; [4]) was 85%, the inhibition at 5000 µM (lice eggs; [4]) was 100% and the inhibition at 10000 µM (lice eggs; Pediculus humanus, 72 h, 10 mM, treated 72 hr post egg laying) was 100%. It also gave an inhibition at 2500 µM (lice eggs; [5]) of 85%, an inhibition at 5000 µM (lice eggs; [5]) of 100% and an inhibition at 10000 µM (lice eggs; Pediculus humanus, 96 h, 10 mM, treated 96 hr post egg laying) of 100%. For the same molecule, the inhibition at 2500 µM (lice eggs; [6]) was 89%, the inhibition at 5000 µM (lice eggs; [6]) was 93% and the inhibition at 10000 µM (lice eggs; Pediculus humanus, 120 h, 10 mM, treated 120 hr post egg laying) was 100%. The inhibition at 2500 µM (lice eggs; [7]) was 60%, the inhibition at 5000 µM (lice eggs; [7]) was 96% and the inhibition at 10000 µM (lice eggs; Pediculus humanus, 144 h, 10 mM, treated 144 hr post egg laying) was 100%. The “inhibition of egg hatching” value (lice eggs; added within 24 hours of hatching) was “variable inhibition of egg hatching”, the “inhibition of lice egg hatching in time-course experiments” value (lice eggs; varying concentrations (10, 5, 2.5 mM), 24-144 hr post egg laying) was “Significant inhibition; also recorded: significantly inhibit egg hatching in lice at all time points examined” and the “effect on egg hatching of Helicoverpa armigera (words)” value ([1]; 10 mM) was “able to inhibit egg hatching”. For the same molecule, the inhibition at 1000 µM ([1]; Helicoverpa armigera) was 0%, the inhibition at 10000 µM ([1]; Helicoverpa armigera) was 44% and the Number hatched ([1]; Table 12, 10 mM) was 31. It also gave a Number unhatched ([1]; Table 12, 10 mM) of 16.
